# Data reported in patent US20060252040A1, “Strand specific detection and quantification” (priority 2002, published 2006).
# Assays:
# [1] = system: Dengue 2 virus; test: Plaque assay of supernatants from Dengue-infected BHK-21 cells grown with ribavirin; type: cell-based; conditions: m.o.i 0.00125, supernatants harvested day 3 post-infection, varying concentrations of ribavirin
# Method: (§1) Dengue virus infection and titration: Monolayers of C6/36 or BHK-21 cells were grown in 24 well plates and infected the next day with Dengue 2 virus. After adsorption for 1 hour, unbound viruses were removed by aspiration, the cells rinsed with PBS and grown in their respective maintenance media. Cells without Dengue virus infection, or inoculated with heat-inactivated virus (30 minutes at 56° C.), were used as controls. In some experiments, BHK-21 cells were infected with Dengue 2 virus and grown in the absence or presence of varying concentrations of ribavirin (1-fl-D-ribofuranosyl-1,2,4-triazole-3-carboximide; Sigma, St. Louis, Mo.) to inhibit viral transcription. Cytotoxicity of the cells due to ribavirin treatment was determined by CytoTox 96® Non-Radioactive Cytotoxicity Assay (Promega Corporation, Madison, Wis.). The titer of Dengue 2 virus was determined by plaque assay with BHK-21 cells. […] At day 6 post-infection, cells were fixed and stained with 1% crystal violet-4% formalin solution in phosphate-buffered saline (PBS), and the plaque numbers counted. […]
# (§2) To correlate the levels of replicating virus and the effects of ribavirin, BHK-21 cells were initially infected with Dengue virus at an m.o.i of 0.00125, in the absence or in the presence of varying concentrations of ribavirin. […] The results further validated the utility of this method to quantify the replicative form of the virus.
# [2] = system: BHK-21 cells; test: Cytotoxicity by LDH release (CytoTox 96 Non-Radioactive Cytotoxicity Assay); type: cell-based, hamster; conditions: highest concentration used, 10 ug/ml, day 3 post-infection
# Method: as §1, §2
# [3] = system: Dengue 2 virus; test: RT and real-time quantitative PCR of Dengue RNA in infected BHK-21 cells treated with ribavirin; type: cell-based; conditions: m.o.i 0.00125, day 3 post-infection
# Method: RT-PCR and real-time quantitative PCR of Dengue nucleic acids: Total RNA was prepared from infected cells using the TRizol® Reagent (Invitrogen Life Technologies, Carlsbad, Calif.) according to manufacturer's instructions. The RNA obtained was quantified by spectrophotometry, and their integrity analyzed by gel electrophoresis. The RT reaction was performed at 42° C. on 2-5 ug of total RNA as described (21) using 100 U of M-MLV (Promega Corporation, Madison, Wis.) with either 12.5 pmoles of random hexamers (Promega Corporation, Madison, Wis.) or DNS-1 (5′-[…]-3′ (SEQ ID NO: 5)) in a total volume of 10 ul. […] The calculated ΔG of the hairpin loop at the RT step was −2.9 kcal/mol, with a Tm (melting temperature) of 62° C. […] However, with the conditions used for PCR, the ΔG and the Tm of the hairpin loop were −0.4 kcal/mol and 64° C. respectively.
# All real-time quantitative PCR was performed on the iCycler jQ™ Multi-Color Real Time PCR Detection System (Bio-Rad, Hercules, Calif.). The threshold cycles (Ct) were calculated using the Optical interface v2.3B (Bio-Rad, Hercules, Calif.). […] Unless stated otherwise, all real-time quantitative PCR was performed with 40 cycles of 30 s denaturation at 95° C., 30 s annealing at 60° C. and 30 s extension at 72° C. […]
# [4] = system: RNA viruses including Dengue; conditions: Koff et al., 1982; Sidwell, 1979; cited from earlier work
structure (smiles),measurement,setting,value
"NC(=O)c1ncn([C@@H]2O[C@H](CO)[C@@H](O)[C@H]2O)n1 [Ribavirin, 1-fl-D-ribofuranosyl-1,2,4-triazole-3-carboximide]",viral replication (relative PFU),[1],inhibited viral replication in a concentration dependent manner
same,cell death (LDH release),[2],did not induce detectable cell death
same,"replicative, negative Dengue RNA strand","[3]; RT with DNS-1, increasing concentrations of ribavirin",concomitant decrease with increasing concentrations of ribavirin
same,"viral transcripts, random hexamer-primed RT, primers to the envelope region",[3]; varying concentrations of ribavirin,corresponding decrease in viral transcripts
same,replication of RNA viruses,[4],known to inhibit the replication of many RNA viruses including Dengue
